Data published in ChEMBL document CHEMBL5150068, “Structure-Based Design of Tropane Derivatives as a Novel Series of CCR5 Antagonists with Broad-Spectrum Anti-HIV-1 Activities and Improved Oral Bioavailability” (J Med Chem, 2022).

Tests used:
[1] = target: C-C chemokine receptor type 5 (Homo sapiens, UniProt P51681); experiment: Antagonist activity at CCR5 (unknown origin) expressed in HEK293 cells co-expressing Galpha16 assessed as intracellular calcium change incubated for 15 mins by Fluo-4 AM calcium flux assay; assay type: functional, cell-based
[2] = tested on: Human immunodeficiency virus 1; experiment: Antiviral activity against HIV-1 Ba-L infected in human TZM-bl cells measured after 48 hrs incubation by luciferase based analysis; assay type: functional, organism-based; details: Human immunodeficiency virus 1, Ba-L
[3] = Cytotoxicity against human TZM-bl cells incubated for 48 hrs by MTT assay; assay type: toxicity, cell-based
[4] = Cytotoxicity against human PM1 cells incubated for 48 hrs by MTT assay; assay type: toxicity, cell-based
[5] = Cytotoxicity against human HOS-CD4-CCR5 cells incubated for 48 hrs by MTT assay; assay type: toxicity, cell-based
[6] = Cytotoxicity against human PBMC cells incubated for 48 hrs by MTT assay; assay type: toxicity, cell-based
[7] = tested on: Human immunodeficiency virus 1; experiment: Antiviral activity against HIV-1 SF162 infected in human TZM-bl cells measured after 48 hrs incubation by luciferase based analysis; assay type: functional, organism-based; details: Human immunodeficiency virus 1, SF162, TZM-bl
[8] = tested on: Human immunodeficiency virus 1; experiment: Antiviral activity against HIV-1 YU-2 infected in human TZM-bl cells measured after 48 hrs incubation by luciferase based analysis; assay type: functional, organism-based; details: Human immunodeficiency virus 1, YU-2, TZM-bl, 48 h
[9] = tested on: Human immunodeficiency virus 1; experiment: Antiviral activity against HIV-1 Ba-L infected in human HOS-CD4-CCR5 cells measured after 48 hrs incubation by ELISA based p24 antigen assay; assay type: functional, organism-based; details: Human immunodeficiency virus 1, Ba-L
[10] = tested on: Human immunodeficiency virus 1; experiment: Antiviral activity against HIV-1 Ba-L infected in human PM1 cells measured after 48 hrs incubation by ELISA based p24 antigen assay; assay type: functional, organism-based; details: Human immunodeficiency virus 1, Ba-L, PM1, 48 h
[11] = tested on: Human immunodeficiency virus 1; experiment: Antiviral activity against HIV-1 IIIB infected in human TZM-bl cells measured after 48 hrs incubation by luciferase based analysis; assay type: functional, organism-based; details: Human immunodeficiency virus 1, IIIB
[12] = tested on: Human immunodeficiency virus 1; experiment: Antiviral activity against HIV-1 KM018 clinical isolate infected in human PBMC measured after 48 hrs incubation by luciferase based analysis; assay type: functional, organism-based; details: Human immunodeficiency virus 1, KM018, PBMC
[13] = tested on: Human immunodeficiency virus 1; experiment: Antiviral activity against HIV-1 KIZ001 clinical isolate infected in human PBMC measured after 48 hrs incubation by luciferase based analysis; assay type: functional, organism-based; details: Human immunodeficiency virus 1, KIZ001, PBMC
[14] = tested on: Human immunodeficiency virus 1; experiment: Antiviral activity against HIV-1 KIZ006 clinical isolate infected in human PBMC measured after 48 hrs incubation by luciferase based analysis; assay type: functional, organism-based; details: Human immunodeficiency virus 1, KIZ006, PBMC
[15] = tested on: Human immunodeficiency virus 1; experiment: Antiviral activity against HIV-1 YU-2 (G140S/Q148H) infected in human TZM-bl cells measured after 48 hrs incubation by luciferase based analysis; assay type: functional, organism-based; details: Human immunodeficiency virus 1, YU-2 (G140S/Q148H)
[16] = Cmax in Sprague-Dawley rat at 10 mg/kg, po measured upto 24 hrs; assay type: ADME, organism-based; parameters: time < 24 hrs, dose 10 mg/kg, route po; details: in vivo
[17] = Tmax in Sprague-Dawley rat at 10 mg/kg, po measured upto 24 hrs; assay type: ADME, organism-based; details: in vivo
[18] = Half life in Sprague-Dawley rat at 10 mg/kg, po measured upto 24 hrs; assay type: ADME, organism-based; details: in vivo
[19] = AUC (0 to last) in Sprague-Dawley rat at 10 mg/kg, po measured upto 24 hrs; assay type: ADME, organism-based; parameters: dose 10 mg/kg, time < 24 hrs, route po; details: in vivo
[20] = AUC (0 to infinitive) in Sprague-Dawley rat at 10 mg/kg, po measured upto 24 hrs; assay type: ADME, organism-based; parameters: dose 10 mg/kg, time < 24 hrs, route po; details: Sprague-Dawley, in vivo
[21] = MRT in Sprague-Dawley rat at 10 mg/kg, po measured upto 24 hrs; assay type: ADME, organism-based; details: in vivo
[22] = Oral bioavailability in Sprague-Dawley rat at 10 mg/kg measured upto 24 hrs; assay type: ADME, organism-based; details: Sprague-Dawley, in vivo
[23] = Half life in Sprague-Dawley rat at 2 mg/kg, iv measured upto 24 hrs; assay type: ADME, organism-based; details: in vivo
[24] = AUC (0 to last) in Sprague-Dawley rat at 2 mg/kg, iv measured upto 24 hrs; assay type: ADME, organism-based; parameters: dose 2 mg/kg, time < 24 hrs, route iv; details: Sprague-Dawley, in vivo
[25] = AUC (0 to infinitive) in Sprague-Dawley rat at 2 mg/kg, iv measured upto 24 hrs; assay type: ADME, organism-based; parameters: dose 2 mg/kg, time < 24 hrs, route iv; details: Sprague-Dawley, in vivo
[26] = MRT in Sprague-Dawley rat at 2 mg/kg, iv measured upto 24 hrs; assay type: ADME, organism-based; details: in vivo, iv, 2 mg/kg, 24 h
Cytochrome P450 1A2 = target: T1, Cytochrome P450 1A2 (Homo sapiens, UniProt P05177); experiment: Inhibition of CYP1A2 (unknown origin); assay type: ADME
T1 sequence (P05177 whole entry): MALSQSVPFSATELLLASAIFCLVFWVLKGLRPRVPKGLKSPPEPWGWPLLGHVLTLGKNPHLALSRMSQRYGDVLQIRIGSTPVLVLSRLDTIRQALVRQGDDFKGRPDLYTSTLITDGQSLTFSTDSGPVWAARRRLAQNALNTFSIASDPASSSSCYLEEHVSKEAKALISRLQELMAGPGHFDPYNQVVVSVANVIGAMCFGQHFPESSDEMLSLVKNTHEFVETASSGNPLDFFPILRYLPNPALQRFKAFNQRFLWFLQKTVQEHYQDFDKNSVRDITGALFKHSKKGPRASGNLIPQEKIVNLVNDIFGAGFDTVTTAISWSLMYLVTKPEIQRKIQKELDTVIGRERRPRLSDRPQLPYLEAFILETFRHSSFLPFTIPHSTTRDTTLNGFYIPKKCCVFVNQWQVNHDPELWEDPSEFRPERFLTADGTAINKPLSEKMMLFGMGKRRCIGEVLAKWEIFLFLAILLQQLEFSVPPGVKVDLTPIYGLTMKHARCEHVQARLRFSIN

Cytochrome P450 2C9 = Cytochrome P450 2C9 (Homo sapiens, UniProt P11712); experiment: Inhibition of CYP2C9 (unknown origin); assay type: ADME
Cytochrome P450 2C19 = Cytochrome P450 2C19 (Homo sapiens, UniProt P33261); experiment: Inhibition of CYP2C19 (unknown origin); assay type: ADME
Cytochrome P450 2D6 = Cytochrome P450 2D6 (Homo sapiens, UniProt P10635); experiment: Inhibition of CYP2D6 (unknown origin); assay type: ADME
Cytochrome P450 3A4 [27] = target: T2, Cytochrome P450 3A4 (Homo sapiens, UniProt P08684); experiment: Inhibition of CYP3A4 (unknown origin) using midazolam as substrate; assay type: ADME
Cytochrome P450 3A4 [28] = target: T2, Cytochrome P450 3A4; experiment: Inhibition of CYP3A4 (unknown origin) using testosterone as substrate; assay type: ADME
in vitro [29] = details: human, TZM-bl cells
Description: Therapeutic index, ratio of CC50 for human TZM-bl cells to EC50 for antiviral activity against HIV-1 Ba-L

in vitro [30] = details: human, HOS-CD4-CCR5 cells
Description: Therapeutic index, ratio of CC50 for human HOS-CD4-CCR5 cells to EC50 for antiviral activity against HIV-1 Ba-L

in vitro [31] = details: human, PM1 cells
Description: Therapeutic index, ratio of CC50 for human PM1 cells to EC50 for antiviral activity against HIV-1 Ba-L

in vitro [32] = details: human, PM1 cells; remark: listed apart in the source
Description: Therapeutic index, ratio of CC50 for human PM1 cells to EC50 for antiviral activity against HIV-1 YU-2

in vitro [33] = details: human, PM1 cells; remark: listed apart in the source
Description: Therapeutic index, ratio of CC50 for human PM1 cells to EC50 for antiviral activity against HIV-1 SF162

in vitro [34] = details: human, PBMC
Description: Therapeutic index, ratio of CC50 for human PBMC to EC50 for antiviral activity against HIV-1 KM018 clinical isolate

in vitro [35] = details: human, PBMC; remark: listed apart in the source
Description: Therapeutic index, ratio of CC50 for human PBMC to EC50 for antiviral activity against HIV-1 KIZ001 clinical isolate

in vitro [36] = details: human, PBMC; remark: listed apart in the source
Description: Therapeutic index, ratio of CC50 for human PBMC to EC50 for antiviral activity against HIV-1 KIZ006 clinical isolate

[37] = Half life in Sprague-Dawley rat at 1 mg/kg, iv measured upto 24 hrs; assay type: ADME, organism-based; details: in vivo
[38] = Clearance in Sprague-Dawley rat at 1 mg/kg, iv measured upto 24 hrs; assay type: ADME, organism-based; details: in vivo

Cytochrome P450 2C19, sequence (P33261 whole entry): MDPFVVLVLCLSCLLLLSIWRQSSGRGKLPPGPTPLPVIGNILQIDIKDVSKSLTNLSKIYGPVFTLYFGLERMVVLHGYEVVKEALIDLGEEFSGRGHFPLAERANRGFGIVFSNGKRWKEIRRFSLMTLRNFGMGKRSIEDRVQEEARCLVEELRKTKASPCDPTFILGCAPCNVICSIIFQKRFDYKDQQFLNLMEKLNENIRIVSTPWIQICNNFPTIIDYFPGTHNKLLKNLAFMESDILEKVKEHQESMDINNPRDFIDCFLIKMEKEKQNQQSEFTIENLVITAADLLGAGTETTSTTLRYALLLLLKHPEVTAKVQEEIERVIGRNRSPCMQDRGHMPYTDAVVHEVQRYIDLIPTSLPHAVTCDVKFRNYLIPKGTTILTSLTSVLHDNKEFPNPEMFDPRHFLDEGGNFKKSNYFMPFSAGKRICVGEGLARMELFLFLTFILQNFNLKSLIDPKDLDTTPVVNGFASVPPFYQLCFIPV
Cytochrome P450 2C9, sequence (P11712 whole entry): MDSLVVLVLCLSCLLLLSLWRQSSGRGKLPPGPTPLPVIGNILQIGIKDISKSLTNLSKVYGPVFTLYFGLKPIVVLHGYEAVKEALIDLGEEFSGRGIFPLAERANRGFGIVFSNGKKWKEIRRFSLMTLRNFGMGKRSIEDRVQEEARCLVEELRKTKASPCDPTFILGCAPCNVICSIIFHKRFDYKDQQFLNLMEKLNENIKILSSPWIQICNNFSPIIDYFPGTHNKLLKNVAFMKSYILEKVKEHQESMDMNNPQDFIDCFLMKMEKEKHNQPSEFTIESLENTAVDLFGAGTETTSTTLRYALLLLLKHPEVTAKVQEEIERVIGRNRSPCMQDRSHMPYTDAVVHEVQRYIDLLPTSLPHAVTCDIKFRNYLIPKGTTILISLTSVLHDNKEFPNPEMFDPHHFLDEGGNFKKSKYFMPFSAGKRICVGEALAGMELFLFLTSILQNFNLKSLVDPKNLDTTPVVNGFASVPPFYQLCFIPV
Cytochrome P450 2D6, sequence (P10635 whole entry): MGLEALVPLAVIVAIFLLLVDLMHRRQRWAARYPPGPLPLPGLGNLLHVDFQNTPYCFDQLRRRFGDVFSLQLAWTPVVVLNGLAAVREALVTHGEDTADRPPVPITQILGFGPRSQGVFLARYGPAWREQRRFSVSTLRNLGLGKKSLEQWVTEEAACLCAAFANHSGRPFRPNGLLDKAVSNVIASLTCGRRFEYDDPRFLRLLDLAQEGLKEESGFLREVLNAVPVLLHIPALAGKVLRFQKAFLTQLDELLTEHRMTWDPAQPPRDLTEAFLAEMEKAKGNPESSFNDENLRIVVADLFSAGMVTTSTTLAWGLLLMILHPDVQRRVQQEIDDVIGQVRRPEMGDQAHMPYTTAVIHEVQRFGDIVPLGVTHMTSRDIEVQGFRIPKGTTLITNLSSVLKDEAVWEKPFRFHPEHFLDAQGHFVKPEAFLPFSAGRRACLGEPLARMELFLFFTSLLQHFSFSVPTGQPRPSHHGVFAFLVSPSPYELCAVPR
T2 sequence (P08684 whole entry): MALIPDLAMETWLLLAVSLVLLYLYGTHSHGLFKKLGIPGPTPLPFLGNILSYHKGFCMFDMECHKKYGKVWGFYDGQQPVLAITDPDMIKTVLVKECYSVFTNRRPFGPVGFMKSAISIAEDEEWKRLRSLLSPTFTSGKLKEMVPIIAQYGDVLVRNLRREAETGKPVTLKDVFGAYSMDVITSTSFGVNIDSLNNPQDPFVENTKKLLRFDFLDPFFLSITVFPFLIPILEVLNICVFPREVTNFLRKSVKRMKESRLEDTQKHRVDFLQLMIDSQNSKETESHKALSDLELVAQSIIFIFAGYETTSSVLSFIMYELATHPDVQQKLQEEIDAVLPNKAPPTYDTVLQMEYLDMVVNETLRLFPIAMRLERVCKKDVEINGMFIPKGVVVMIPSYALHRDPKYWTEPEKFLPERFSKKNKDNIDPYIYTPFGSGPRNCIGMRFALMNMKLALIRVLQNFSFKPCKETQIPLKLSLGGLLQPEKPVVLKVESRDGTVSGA
C-C chemokine receptor type 5, sequence (P51681 whole entry): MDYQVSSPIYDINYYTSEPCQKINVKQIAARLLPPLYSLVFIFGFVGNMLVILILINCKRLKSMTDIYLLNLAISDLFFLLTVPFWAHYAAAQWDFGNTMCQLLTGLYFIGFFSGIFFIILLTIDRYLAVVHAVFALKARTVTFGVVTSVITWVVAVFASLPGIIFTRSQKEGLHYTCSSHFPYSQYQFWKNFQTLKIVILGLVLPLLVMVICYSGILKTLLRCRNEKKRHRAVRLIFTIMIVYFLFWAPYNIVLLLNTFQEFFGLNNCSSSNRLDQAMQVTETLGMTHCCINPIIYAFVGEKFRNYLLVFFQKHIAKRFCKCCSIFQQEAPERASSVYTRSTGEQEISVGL

Cc1nc2c(n1[C@@H]1C[C@H]3CC[C@@H](C1)N3CC[C@H](NC(=O)C1CCC(F)(F)CC1)c1ccsc1)CCN(C(=O)C(C)C)C2
IC50 [1]: 0.00834 µM | EC50 [2]: 0.011 µM | CC50 at 48 h [3]: > 200 µM | CC50 at 48 h [4]: > 200 µM | CC50 at 48 h [5]: > 200 µM | CC50 at 48 h [6]: 81.7 µM | EC50 [7]: 0.016 µM | EC50 [8]: 0.00873 µM | EC50 [9]: 0.00156 µM | EC50 [10]: 0.0005 µM | EC50 [11]: > 1 µM | EC50 [12]: 0.032 µM | EC50 [13]: 0.00782 µM | EC50 [14]: 0.0126 µM | EC50 [15]: 0.00434 µM | Cmax [16]: 49.5 ng/mL | Tmax [17]: 2 h | half-life [18]: 10.3 h | AUC(0-t) at 24 h [19]: 283 ng·h/mL | AUC(0-inf) [20]: 283 ng·h/mL | MRT [21]: 13.2 h | bioavailability [22]: 15.7% | t1/2 ([23]; iv, 2 mg/kg, 24 h): 1.6 h | AUC(0-t) at 24 h [24]: 298 ng·h/mL | AUC(0-inf) [25]: 283 ng·h/mL | MRT [26]: 13.2 h | IC50 (Cytochrome P450 1A2): > 25 µM | IC50 (Cytochrome P450 2C9): > 25 µM | IC50 (Cytochrome P450 2C19): > 25 µM | IC50 (Cytochrome P450 2D6): > 25 µM | IC50 (Cytochrome P450 3A4 [27]): > 25 µM | IC50 (Cytochrome P450 3A4 [28]): > 25 µM | selectivity ratio (in vitro [29]): > 18200 | selectivity ratio (in vitro [30]): > 12800 | selectivity ratio (in vitro [31]): > 40000 | selectivity ratio (in vitro [32]): > 22900 | selectivity ratio (in vitro [33]): > 12500 | selectivity ratio (in vitro [34]): 2550 | selectivity ratio (in vitro [35]): 10400 | selectivity ratio (in vitro [36]): 6480

Cc1nnc(C(C)C)n1[C@@H]1C[C@H]2CC[C@@H](C1)N2CC[C@H](NC(=O)C1CCC(F)(F)CC1)c1ccccc1 [MARAVIROC]
CC50 at 48 h [3]: > 200 µM | CC50 at 48 h [4]: > 200 µM | CC50 at 48 h [5]: > 200 µM | CC50 at 48 h [6]: > 200 µM | Cmax [16]: 5.5 ng/mL | Tmax [17]: 2 h | AUC(0-inf) [20]: 12.4 ng·h/mL | half-life ([23]; Sprague-Dawley): 0.9 h | half-life [37]: 0.9 h | clearance [38]: 74 mL/min/kg | IC50 (Cytochrome P450 1A2): > 25 µM | IC50 (Cytochrome P450 2C9): 14.4 µM | IC50 (Cytochrome P450 2C19): > 25 µM | IC50 (Cytochrome P450 2D6): > 25 µM
